Laboratory results reported in US20170231929A1, “METHOD FOR ENHANCING IMMUNE CELL FUNCTION AND METHOD FOR ASSESSING IMMUNE CELL MULTIFUNCTIONALITY” (NATIONAL UNIVERSITY CORPORATION OKAYAMA UNIVERSITY, priority 2014, published 2017).

Test system: CD8^+T cells
Experiment: Multifunctionality of CD8^+T cells of metastatic lung cancer patients (stage IV) after metformin treatment of PBMC (flow cytometer)
Format: cell-based, human
Conditions: for Decrease, IFNγ 1-cytokine-producing cell / Decrease, IFNγ/IL-2 2-cytokine-producing cell / Decrease, IFNγ/TNFα 2-cytokine-producing cell / Decrease, IFNγ/TNFα/IL2 3-cytokine-producing cell / Increase, IFNγ 1-cytokine-producing cell / Increase, IFNγ/IL-2 2-cytokine-producing cell / Increase, IFNγ/TNFα 2-cytokine-producing cell / Increase, IFNγ/TNFα/IL2 3-cytokine-producing cell / No Change, IFNγ 1-cytokine-producing cell / No Change, IFNγ/IL-2 2-cytokine-producing cell / No Change, IFNγ/TNFα 2-cytokine-producing cell / No Change, IFNγ/TNFα/IL2 3-cytokine-producing cell: Cancer Patients (stage IV)
Method: 1. Peripheral blood was obtained from a test subject, and PBMC was separated by a density-gradient centrifugation using a lymphocyte-separating reagent Ficoll-Paque® (GE Healthcare). 3 mL of Ficoll-Paque® was dispensed in a 15-mL tube. 8 mL of the peripheral blood was gently placed on the reagent. At this time, care should be taken not to mix Ficoll-Paque® with the peripheral blood. Centrifugation was performed at 400 g for 30 minutes, thereby separating PBMC. 2. The separated PBMC was preserved in a −150° C. freezer or liquid nitrogen using Bambang Car cell preservation liquid by adjusting the cell number to 2.0×10^6 cell/tube. 3. In the test, the thawed PBMC was cultured for 1 to 10 hours in the presence or absence of […]. The culture was performed using a 24-well plate, and the cell number was adjusted to about 5.0×10^5 cell/well. 4. The cells were collected after 1 to 10 hours, washed with medium, and cultured in the presence of a cell activation reagent (potent nanomolar activator of protein kinase C (PMA, 50 ng/mL), ionomycin (1 μM)) for 6 hours, thereby non-specifically stimulating T cells. At this time, BD Gorgi Stop™ was added to keep the produced cytokines inside the cells. 5. The cells were isolated and washed twice with a cell-staining buffer. First, staining of CD8, PD-1, Tim-3, which are molecules expressed on the T cell surface, was performed. In the staining, a staining buffer was added in an amount of 50 μL per sample. The culture was performed at 4° C. for 30 minutes. 6. The cells were collected and washed twice with a cell-staining buffer. 500 μL of BD Cytofix/Cytoperm was added and cultured at 4° C. for 30 minutes. 7. The cells were collected and washed twice with BD Perm/Wash™. Staining of cytokines IL-2, TNFα, and IFNγ was performed. In the staining, BD Perm/Wash™ was added in an amount of 50 μL per sample. The culture was performed at 4° C. for 30 minutes. 8. The cells were collected and washed twice with BD Perm/Wash™, and 200 μL of BD Perm/Wash™ was added. 9. Analysis was performed using a FACSCanto™ II flow cytometer (Becton, Dickinson and Company).
Among the PBMC treated with PMA/ionomycin in the method shown in (2) above, first, a gate was applied to CD8^+T cells using a FACSCanto™ II flow cytometer (Becton, Dickinson and Company), and then […] were removed by FSC-A and FSC-H. Using parameters FSC-A and SSC-A, a gate was applied to a lymphocyte group, thereby analyzing expression of PD-1 and Tim-3. Further, intracellular cytokines IFNγ, TNFα, and IL-2 were stained, and multifunctionality of CD8^+T cells contained in the PBMC was analyzed (FIG. 1).
This Example analyzed test results regarding recovery of multifunctionality of CD8^+T cells by metformin in 10 healthy subjects and five metastatic lung cancer patients (stage IV) by the same method as in Example 1. As in Table 3, in Table 3, in addition to the total CD8^+T cells (total CD8T), cytokine production abilities were confirmed in four kinds of CD8^+T cells, i.e., PD-1-positive, Tim-3-negative CD8^+T cells, PD-1-positive, Tim-3-positive CD8^+T cells, PD-1-negative, Tim-3-positive CD8^+T cells, and PD-1-negative, Tim-3-negative CD8^+T cells (Table 4). Cytokine production ability refers to cytokine production ratios of three kinds of cytokines (A), IFNγ/TNFα/IL-2, two kinds of cytokines (B), IFNγ/TNFα, two kinds of cytokines (C), FNγ/IL-2, and one kind of cytokine (D), IFNγ.

`CN(C)C(=N)N=C(N)N` [metformin] was tested, and the “Decrease, IFNγ 1-cytokine-producing cell” value (PD-1+, Tim-3+, patients/total) was 1/5, the “Decrease, IFNγ/IL-2 2-cytokine-producing cell” value (PD-1+, Tim-3+, patients/total) was 1/5 and the “Decrease, IFNγ/TNFα 2-cytokine-producing cell” value (PD-1+, Tim-3+, patients/total) was 1/5. The “Decrease, IFNγ/TNFα/IL2 3-cytokine-producing cell” value (PD-1+, Tim-3+, patients/total) was 0/5, the “Increase, IFNγ 1-cytokine-producing cell” value (PD-1+, Tim-3+, patients/total) was 1/5 and the “Increase, IFNγ/IL-2 2-cytokine-producing cell” value (PD-1+, Tim-3+, patients/total) was 1/5. For the same molecule, the “Increase, IFNγ/TNFα 2-cytokine-producing cell” value (PD-1+, Tim-3+, patients/total) was 1/5, the “Increase, IFNγ/TNFα/IL2 3-cytokine-producing cell” value (PD-1+, Tim-3+, patients/total) was 0/5 and the “No Change, IFNγ 1-cytokine-producing cell” value (PD-1+, Tim-3+, patients/total) was 3/5. The “No Change, IFNγ/IL-2 2-cytokine-producing cell” value (PD-1+, Tim-3+, patients/total) was 3/5, the “No Change, IFNγ/TNFα 2-cytokine-producing cell” value (PD-1+, Tim-3+, patients/total) was 3/5 and the “No Change, IFNγ/TNFα/IL2 3-cytokine-producing cell” value (PD-1+, Tim-3+, patients/total) was 5/5. The “Decrease, IFNγ 1-cytokine-producing cell” value (PD-1+, Tim-3−, patients/total) was 1/5, the “Decrease, IFNγ/IL-2 2-cytokine-producing cell” value (PD-1+, Tim-3−, patients/total) was 1/5 and the “Decrease, IFNγ/TNFα 2-cytokine-producing cell” value (PD-1+, Tim-3−, patients/total) was 2/5. For the same molecule, the “Decrease, IFNγ/TNFα/IL2 3-cytokine-producing cell” value (PD-1+, Tim-3−, patients/total) was 0/5, the “Increase, IFNγ 1-cytokine-producing cell” value (PD-1+, Tim-3−, patients/total) was 0/5 and the “Increase, IFNγ/IL-2 2-cytokine-producing cell” value (PD-1+, Tim-3−, patients/total) was 4/5. For the same molecule, the “Increase, IFNγ/TNFα 2-cytokine-producing cell” value (PD-1+, Tim-3−, patients/total) was 1/5, the “Increase, IFNγ/TNFα/IL2 3-cytokine-producing cell” value (PD-1+, Tim-3−, patients/total) was 4/5 and the “No Change, IFNγ 1-cytokine-producing cell” value (PD-1+, Tim-3−, patients/total) was 4/5. For the same molecule, the “No Change, IFNγ/IL-2 2-cytokine-producing cell” value (PD-1+, Tim-3−, patients/total) was 0/5, the “No Change, IFNγ/TNFα 2-cytokine-producing cell” value (PD-1+, Tim-3−, patients/total) was 2/5 and the “No Change, IFNγ/TNFα/IL2 3-cytokine-producing cell” value (PD-1+, Tim-3−, patients/total) was 1/5. The “Decrease, IFNγ 1-cytokine-producing cell” value (PD-1−, Tim-3+, patients/total) was 2/5, the “Decrease, IFNγ/IL-2 2-cytokine-producing cell” value (PD-1−, Tim-3+, patients/total) was 3/5 and the “Decrease, IFNγ/TNFα 2-cytokine-producing cell” value (PD-1−, Tim-3+, patients/total) was 2/5. The “Decrease, IFNγ/TNFα/IL2 3-cytokine-producing cell” value (PD-1−, Tim-3+, patients/total) was 0/5, the “Increase, IFNγ 1-cytokine-producing cell” value (PD-1−, Tim-3+, patients/total) was 3/5 and the “Increase, IFNγ/IL-2 2-cytokine-producing cell” value (PD-1−, Tim-3+, patients/total) was 0/5. The “Increase, IFNγ/TNFα 2-cytokine-producing cell” value (PD-1−, Tim-3+, patients/total) was 1/5, the “Increase, IFNγ/TNFα/IL2 3-cytokine-producing cell” value (PD-1−, Tim-3+, patients/total) was 0/5 and the “No Change, IFNγ 1-cytokine-producing cell” value (PD-1−, Tim-3+, patients/total) was 0/5. For the same molecule, the “No Change, IFNγ/IL-2 2-cytokine-producing cell” value (PD-1−, Tim-3+, patients/total) was 2/5, the “No Change, IFNγ/TNFα 2-cytokine-producing cell” value (PD-1−, Tim-3+, patients/total) was 2/5 and the “No Change, IFNγ/TNFα/IL2 3-cytokine-producing cell” value (PD-1−, Tim-3+, patients/total) was 5/5. For the same molecule, the “Decrease, IFNγ 1-cytokine-producing cell” value (PD-1−, Tim-3−, patients/total) was 2/5, the “Decrease, IFNγ/IL-2 2-cytokine-producing cell” value (PD-1−, Tim-3−, patients/total) was 2/5 and the “Decrease, IFNγ/TNFα 2-cytokine-producing cell” value (PD-1−, Tim-3−, patients/total) was 2/5. The “Decrease, IFNγ/TNFα/IL2 3-cytokine-producing cell” value (PD-1−, Tim-3−, patients/total) was 0/5, the “Increase, IFNγ 1-cytokine-producing cell” value (PD-1−, Tim-3−, patients/total) was 1/5 and the “Increase, IFNγ/IL-2 2-cytokine-producing cell” value (PD-1−, Tim-3−, patients/total) was 1/5. For the same molecule, the “Increase, IFNγ/TNFα 2-cytokine-producing cell” value (PD-1−, Tim-3−, patients/total) was 1/5, the “Increase, IFNγ/TNFα/IL2 3-cytokine-producing cell” value (PD-1−, Tim-3−, patients/total) was 2/5 and the “No Change, IFNγ 1-cytokine-producing cell” value (PD-1−, Tim-3−, patients/total) was 2/5. The “No Change, IFNγ/IL-2 2-cytokine-producing cell” value (PD-1−, Tim-3−, patients/total) was 2/5, the “No Change, IFNγ/TNFα/IL2 3-cytokine-producing cell” value (PD-1−, Tim-3−, patients/total) was 3/5 and the “Decrease, IFNγ 1-cytokine-producing cell” value (Total CD8T, patients/total) was 3/5. For the same molecule, the “Decrease, IFNγ/IL-2 2-cytokine-producing cell” value (Total CD8T, patients/total) was 0/5, the “Decrease, IFNγ/TNFα 2-cytokine-producing cell” value (Total CD8T, patients/total) was 4/5 and the “Decrease, IFNγ/TNFα/IL2 3-cytokine-producing cell” value (Total CD8T, patients/total) was 0/5. For the same molecule, the “Increase, IFNγ 1-cytokine-producing cell” value (Total CD8T, patients/total) was 0/5, the “Increase, IFNγ/IL-2 2-cytokine-producing cell” value (Total CD8T, patients/total) was 1/5 and the “Increase, IFNγ/TNFα 2-cytokine-producing cell” value (Total CD8T, patients/total) was 1/5. For the same molecule, the “Increase, IFNγ/TNFα/IL2 3-cytokine-producing cell” value (Total CD8T, patients/total) was 1/5, the “No Change, IFNγ 1-cytokine-producing cell” value (Total CD8T, patients/total) was 2/5 and the “No Change, IFNγ/IL-2 2-cytokine-producing cell” value (Total CD8T, patients/total) was 4/5. For the same molecule, the “No Change, IFNγ/TNFα 2-cytokine-producing cell” value (Total CD8T, patients/total) was 0/5, the “No Change, IFNγ/TNFα/IL2 3-cytokine-producing cell” value (Total CD8T, patients/total) was 4/5 and the “Increase + No Change, IFNγ/TNFα/IL2, share of patients” value (Total CD8T, Patients (stage IV)) was 100%. The “Increase + No Change, IFNγ/TNFα/IL2” value (Total CD8T, Patients (stage IV), patients/total) was 5/5 and the “decrease in multifunctionality by the metformin treatment (three kinds of cytokines)” value (cancer patients (stage IV)) was “very small (zero)”.
